Experimental data: US6610877B1, “Aromatic carboxylic acid derivatives” (Hoffman-La Roche Inc., priority 1993, dated 2003)

Key:
[1] = system: Hairless mice (HRS/J strain); test: Repair of UV-B-caused skin damage in the hairless mouse; format: in vivo; details: three times a week, 10 weeks, Luna staining of elastin, total surface per 20 microscopic field
From the text: Repair of UV-B-caused Skin Damage in the Hairless Mouse Hairless mice (HRS/J strain, Jackson Labs, aged 5-7 weeks at the beginning of the experiment) were irradiated three times a week with an arrangement of 8 Westinghouse irradiation lamps (FS40) which were placed about 20 cm above the animals. The radiation dose was controlled by a commercial phototherapeutic control device. The UV-B dose was chosen such that the dosage scarcely exceeded 0.06 J/cm^2, caused a minimal erythema, but no burning or scarring. After a total dose of about 3.5 J/cm^2 there resulted a significant elastosis which was evident from a histological report and which was confirmed by measuring the elastin using a radioimmunoassay for desmosin in the total skin. The desmosin content increased by two- to three-fold after 3.5 J/cm^2 UV-B irradiation. In order to make good the skin damage, the UV irradiation was interrupted and groups of animals were treated three times a week with different doses of compounds of formula I dissolved in acetone. These solutions were prepared freshly each week such that the dosage to be administered was present in […] of acetone and were applied topically to an area of about 10 cm^2 on the backs of the animals. A controlled group was treated only with acetone. After treatment for 10 weeks the animals were killed, skin preparations were prepared and the extent of the recovery was measured quantitatively by Luna staining of the elastin. In this experimental model the skin recovery is defined as the appearance of a normal dermis which extends from the epidermis to the layer of compressed elastin. The extent of the recovery was given by the width of this zone. The area of the zone on a standard length of the histological section was measured and the result was expressed as the total surface in mm^2 per 20 microscopic field.

Row | melting point [°C] | Structure (SMILES) | further results
1 | 182 to 183 | CCCCCCCCc1cc2c(cc1/C=C/c1ccc(C(=O)O)cc1)CCC(C)(C)CC2C (racemic) [Example 12, Rac-(E)-4-[2-(5,7,7-trimethyl-3-octyl-6,7,8,9-tetrahydro-5H-benzocyclohepten-2-yl)vinyl]benzoic acid] | –
2 | 89 to 90 | CCCCCCCOc1cc2c(cc1/C=C/c1ccc(C(=O)O)cc1)[C@]1(C)CCC[C@@]2(C)[C@@H]1O (racemic) [Example 14, (E)-4-[2-[(5RS,9SR,10RS)-3-heptyloxy-10-hydroxy-5,9-dimethyl-6,7,8,9-tetrahydro-5,9-methano-5H-benzocyclohepten-2-yl]vinyl]benzoic acid] | –
3 | 134 to 136 | CCCCCCc1cc2c(cc1/C=C/c1ccc(C(=O)O)cc1)C(C)(C)CCC2(C)C [Compound A, p-[(E)-2-(3-Hexyl-5,6,7,8-tetrahydro-5,5,8,8-tetramethyl-2-naphthyl)vinyl]benzoic Acid] | Recovery Zone ([1]; 0.05 μg topically in acetone): 9.8 ± 2.8 mm^2 • 10^−3; Recovery Zone ([1]; 2 μg topically in acetone): 27.2 ± 2.6 mm^2 • 10^−3; Recovery Zone ([1]; 10 μg topically in acetone): 35.9 ± 7.5 mm^2 • 10^−3
4 | – | CCCCc1cc2c(cc1/C=C/c1ccc(C(=O)O)cc1)C(C)(C)CCC2(C)C [Compound B, 4-[(E)-2-(3-Butyl-5,5,8,8-tetramethyl-5,6,7,8-tetrahydro-naphth-2-yl)vinyl]benzoic Acid] | Recovery Zone ([1]; 0.5 μg topically in acetone): 15.6 ± 2.74 mm^2 • 10^−3; Recovery Zone ([1]; 2 μg topically in acetone): 20.5 ± 7.17 mm^2 • 10^−3
5 | – | CCCCCCc1cc2c(cc1/C=C/C=C/C(C)=C/C(=O)O)C(C)(C)CCC2(C)C [Compound C, (all E)-7-(3-Hexyl-5,5,8,8-tetramethyl-5,6,7,8-tetrahydro-naphthalen-2-yl)-3-methyl-hepta-2,4,6-trienoic Acid] | Recovery Zone ([1]; 2 μg topically in acetone): 32.8 ± 6.72 mm^2 • 10^−3; Recovery Zone ([1]; 10 μg topically in acetone): 59.5 ± 6.71 mm^2 • 10^−3
6 | – | CCc1cc2c(cc1/C=C/c1ccc(C(=O)O)cc1)C(C)(C)CCC2(C)C [Compound D, p-[(E)-2-(3-Ethyl-5,6,7,8-tetrahydro-5,5,8,8-tetramethyl-2-naphthyl)vinyl]benzoic Acid] | Recovery Zone ([1]; 0.5 μg topically in acetone): 15.5 ± 4.9 mm^2 • 10^−3; Recovery Zone ([1]; 2 μg topically in acetone): 19.1 ± 4.9 mm^2 • 10^−3; Recovery Zone ([1]; 10 μg topically in acetone): 46.5 ± 6.9 mm^2 • 10^−3
7 | – | CCCCCCCCc1cc2c(cc1/C=C/c1ccc(C(=O)O)cc1)C(C)(C)CCC2(C)C [Compound E, p-[(E)-2-(3-Octyl-5,6,7,8-tetrahydro-5,5,8,8-tetramethyl-2-naphthyl)vinyl]benzoic Acid] | Recovery Zone ([1]; 0.5 μg topically in acetone): 7.48 ± 1.7 mm^2 • 10^−3; Recovery Zone ([1]; 2 μg topically in acetone): 4.70 ± 2.0 mm^2 • 10^−3; Recovery Zone ([1]; 10 μg topically in acetone): 22.2 ± 8.3 mm^2 • 10^−3
8 | 173 to 174 | CCCCCc1cc2c(cc1/C=C/c1ccc(C(=O)O)cc1)C(C)(C)CCC2(C)C [Example 2, (E)-4-[2-(3-Pentyl-5,5,8,8-tetramethyl-5,6,7,8-tetrahydro-naphthalen-2-yl)vinyl]benzoic acid] | –
9 | 164 to 166 | CCCCCc1cc2c(cc1/C=C/C=C/C(C)=C/C(=O)O)C(C)(C)CCC2(C)C [Example 5, (2E,4E,6E)-7-(3-Pentyl-5,5,8,8-tetramethyl-5,6,7,8-tetrahydro-naphthalen-2-yl)-3-methyl-hepta-2,4,6-trienoic acid] | –
10 | 170 to 174 | CCCCCc1cc2c(cc1/C=C/C=C/C(C)=C\C(=O)O)C(C)(C)CCC2(C)C [Example 6, (2Z,4E,6E)-7-(3-Pentyl-5,5,8,8-tetramethyl-5,6,7,8-tetrahydro-naphthalen-2-yl)-3-methyl-hepta-2,4,6-trienoic acid] | –
11 | 179.5 to 180.5 | CCCCCCCCc1cc2c(cc1/C=C/c1ccc(C(=O)O)cc1)CCC(C)(C)CC2 [Example 11, (E)-4-[2-(7,7-dimethyl-3-octyl-6,7,8,9-tetrahydro-5H-benzocyclohepten-2-yl)vinyl]benzoic acid] | –
12 | 81 to 83 | CCCCc1cc2c(cc1/C=C/c1ccc(C(=O)O)cc1)C(C)(C)CCCC2 [Example 13 (fourth compound), (E)-4-[2-(3-butyl-9,9-dimethyl-6,7,8,9-tetrahydro-5H-benzocyclohepten-2-yl)vinyl]benzoic acid] | –
13 | 149 to 150 | CCCCCCC1C2=C(CC1/C=C/c1ccc(C(=O)O)cc1)C(C)(C)CC=C2 (stereo not shown) [Example 13 (second compound), (E)-4-[2-(3-Hexyl-7,7-dimethyl-indan-2-yl)vinyl]benzoic acid] | –
14 | 133 to 134 | CCCCCCc1cc2c(cc1/C=C/c1ccc(C(=O)O)cc1)CCCCC2(C)C [Example 13 (third compound), (E)-4-[2-(3-hexyl-5,5-dimethyl-6,7,8,9-tetrahydro-5H-benzocyclohepten-2-yl)vinyl]benzoic acid] | –
15 | 184 to 186 | CCCCc1cc2c(cc1/C=C/c1ccc(C(=O)O)cc1)CCCCC2(C)C [Example 13, (E)-4-[2-(3-Butyl-5,5-dimethyl-6,7,8,9-tetrahydro-5H-benzocyclohepten-2-yl)vinyl]benzoic acid] | –
16 | 118 to 119 | CCCCCC(=O)c1cc2c(cc1/C=C/c1ccc(C(=O)O)cc1)C(C)(C)CCC2(C)C [Example 16, (E)-4-[2-(3-hexanoyl-5,5,8,8-tetramethyl-5,6,7,8-tetrahydro-naphthalen-2-yl)vinyl]benzoic acid] | –
17 | 155 to 156 | CCCCCc1cc2c(cc1C#C/C=C/C(C)=C/C(=O)O)C(C)(C)CCC2(C)C [Example 17 (2E,4E), (2E,4E)-3-methyl-7-(5,5,8,8-tetramethyl-3-pentyl-5,6,7,8-tetrahydro-naphthalen-2-yl)-hepta-2,4-dien-6-ynoic acid] | –
18 | 144 to 145 | CCC#CCOc1cc2c(cc1/C=C/c1ccc(C(=O)O)cc1)C(C)(C)CCC2(C)C [Example 20, (E)-4-[2-(3-pent-2-ynyloxy-5,5,8,8-tetramethyl-5,6,7,8-tetrahydro-naphthalen-2-yl)-vinyl]-benzoic acid] | –
19 | 208 to 209 | CCC#CCOc1cc2c(cc1/C=C/C=C/C(C)=C/C(=O)O)C(C)(C)CCC2(C)C [Example 21, (2E,4E,6E)-3-methyl-7-(3-pent-2-ynyloxy-5,5,8,8-tetramethyl-5,6,7,8-tetrahydro-naphthalen-2-yl)-hepta-2,4,6-trienoic acid] | –
20 | 191 to 192 | C=CCOc1cc2c(cc1/C=C/c1ccc(C(=O)O)cc1)C(C)(C)CCC2(C)C [Example 22 (allyloxy), (E)-4-[2-(3-allyloxy-5,5,8,8-tetramethyl-5,6,7,8-tetrahydro-naphthalen-2-yl)-vinyl]-benzoic acid] | –
21 | 178 to 180 | C/C=C/COc1cc2c(cc1/C=C/c1ccc(C(=O)O)cc1)C(C)(C)CCC2(C)C [Example 22 (but-2-enyloxy), 4-[(E)-2-((E)-3-but-2-enyloxy-5,5,8,8-tetramethyl-5,6,7,8-tetrahydro-naphthalen-2-yl)-vinyl]-benzoic acid] | –
22 | 193 to 194 | C=CCOc1cc2c(cc1/C=C/C=C/C(C)=C/C(=O)O)C(C)(C)CCC2(C)C [Example 23 (allyloxy), (2E,4E,6E)-7-(3-allyloxy-5,5,8,8-tetramethyl-5,6,7,8-tetrahydro-naphthalen-2-yl)-3-methyl-hepta-2,4,6-trienoic acid] | –

Row | Structure (SMILES) | melting point [°C] | further results
23 | CCCCOc1cc2c(cc1/C=C/C=C/C(C)=C/C(=O)O)[C@]1(C)CCC[C@@]2(C)[C@@H]1O (racemic) [Example 19, (2E,4E,6E)-(5RS,9SR,10RS)-7-(3-butoxy-10-hydroxy-5,9-dimethyl-6,7,8,9-tetrahydro-5,9-methano-5H-benzocyclohepten-2-yl)-3-methyl-hepta-2,4,6-trienoic acid] | 176 to 178 | –
24 | CCCCCOc1cc2c(cc1/C=C/c1ccc(C(=O)O)cc1)C(C)(C)CCC2(C)C [Example 8, (E)-4-[2-(5,5,8,8-Tetramethyl-3-pentoxy-5,6,7,8-tetrahydro-naphthalen-2-yl)vinyl]benzoic acid] | 148 to 149 | –
25 | CCCCCOc1cc2c(cc1/C=C/C=C/C(C)=C/C(=O)O)C(C)(C)CCC2(C)C [Example 10 (2E isomer), (2E,4E,6E)-3-methyl-7-(5,5,8,8-tetramethyl-3-pentoxy-5,6,7,8-tetrahydro-naphthalen-2-yl)-hepta-2,4,6-trienoic acid] | 162 to 163 | –
